Assay results reported in a compilation of properties of binary mixtures (doi:10.1021/je901058s).

Assay: xn = mol fraction of the nth substance listed
Conditions: 101 kPa

CCCCCCCCn1cc[n+](C)c1.O=[N+]([O-])[O-] + CCCCO
viscosity [mPa·s]
Conditions	283.15 K	288.15 K	293.15 K	298.15 K	303.15 K	308.15 K	313.15 K	318.15 K	323.15 K	328.15 K
x2 = 0.168	–	530	380	277	207	158	–	97.4	73.2	48.9
x2 = 0.261	440	311	229	172	132	103	78.5	63.4	51.6	35.5
x2 = 0.358	241	179	–	105	80.6	–	–	–	35.7	25.5
x2 = 0.458	126	98.8	74.2	–	–	39.3	32.6	27.3	–	–
x2 = 0.57	59.4	47.4	–	–	26.4	22.29	18.98	16.3	–	10.88
x2 = 0.676	29.9	24.7	–	17.43	–	–	11.15	9.75	–	6.84
x2 = 0.754	18.67	15.69	13.36	11.44	9.92	8.74	7.63	6.76	5.98	4.76
x2 = 0.848	10.45	9.03	–	–	5.92	5.15	4.56	4.03	–	2.93

CCCCCCCCn1cc[n+](C)c1.O=[N+]([O-])[O-] + CCCO
viscosity [mPa·s]
Conditions	283.15 K	288.15 K	293.15 K	298.15 K	303.15 K	308.15 K	313.15 K	318.15 K	323.15 K	328.15 K
x2 = 0.107	1091	730	510	365	267	201	153	120	95.4	–
x2 = 0.258	490	–	258	191	–	113	86.9	–	53.4	36.5
x2 = 0.364	218	164	127	99.7	–	63	51.1	42.1	35	25
x2 = 0.47	114	85.8	–	60	48.5	39.7	–	27.6	23.44	17.34
x2 = 0.556	65.4	–	–	34.4	28.6	–	20.38	17.44	15.08	–
x2 = 0.671	28.8	23.8	–	16.84	14.41	12.45	–	–	8.41	6.55
x2 = 0.756	16.16	13.66	11.67	10.07	8.77	7.63	6.75	5.93	5.21	4.2
x2 = 0.866	7.84	6.8	5.85	–	4.48	3.94	3.52	3.14	2.82	2.31

CCCCCCCCn1cc[n+](C)c1.O=[N+]([O-])[O-] + CCO
viscosity [mPa·s]
Conditions	283.15 K	288.15 K	293.15 K	298.15 K	303.15 K	308.15 K	313.15 K	318.15 K	323.15 K	328.15 K
x2 = 0.128	970	660	460	333	246	185	143	–	81.4	–
x2 = 0.266	380	266	198	150	116	89.1	68.9	55.9	45.9	32
x2 = 0.357	216	–	124	97	73.4	58.4	48.3	–	33.3	–
x2 = 0.455	102	76.2	–	47.5	38.3	31.2	25.8	–	18.59	14.08
x2 = 0.554	–	38.6	31.5	26.1	–	18.4	15.71	13.53	11.78	–
x2 = 0.662	24.8	20.62	17.19	14.52	12.44	10.83	9.55	8.69	7.83	6.2
x2 = 0.767	11.64	9.86	–	–	–	5.72	–	4.46	3.99	3.27
x2 = 0.868	5.09	–	3.97	3.49	3.13	2.8	2.53	2.3	2.1	1.77
